The values that follow come from patent US4250087A, “Carboxyl terminus analogs of β-endorphin” (Hoffmann-La Roche Inc., priority 1979, dated 1981).

The term IC50 denotes the concentration that inhibits the measured activity by half. A high value points to weaker potency in that assay.

Test [1] has as its system rat brain receptor (opiate). Nature of the test: Rat brain binding assay with tritiated βh-EP as primary ligand (Example 4). The conditions noted are these: for IC50: 50% inhibiting concentration; for Relative Potency: receptor binding, βh-Endorphin = 100. The method, then:
Opiate activity was measured in the rat brain binding assay in which tritiated βh -EP is used as primary ligand (Ferrara et al., Biochem. Biophys. Res. Comm. 89, 786 [1979]).

For test [2], the system named is guinea pig ileum preparations. Nature of the test: Opiate activity: depression of electrically-stimulated contractions of guinea pig ileum preparations. Format: cell-based. The conditions noted are these: for IC50: guinea pig ileum assay; for Relative Potency: guinea pig ileum, βh-Endorphin = 100. The method, then:
(§1) Opiate activity was measured from the depression of electrically-stimulatedcontractions of guinea pig ileum preparations, see Kosterlitz et al., J. Pharmacol. 39, 398 (1970) and Doneen et al., Biochem. Biophys. Res. Commun. 74, 656 (1977). For analgesic assay, male ICR mice weighing 25-30 g (Simonsen Laboratories, Gilroy, CA) were used. Analgesic activity was assessed by the tail-flick method of D'Amour and Smith as described by Li et al., Biochem. Biophys. Res. Commun. 85, 795 (1978).

The nature of test [3]: Analgesic assay, tail-flick method, intracerebroventricular injection. It is filed as in vivo, male ICR mice. The conditions noted are these: for Relative Potency: analgesic potency, βh-Endorphin = 100 (run in the same group); for AD50: intracerebroventricular injection, mice, tail-flick, 95% confidence limit in parentheses. The method, then:
as §1
^a AD50 in nmole (95% confidence limit) by
intracerebroventricular injection.
Background: Hot-plate and tail-flick tests time the reaction to a heat stimulus.

The next test concerns the target opiate receptor. Put plainly: Opiate receptor binding assay, rat brain membrane fraction (Example 2). The conditions noted are these: for IC50: 50% inhibiting concentration, [3H-Tyr27]-βh-EP as primary ligand; for Relative Potency: receptor binding, βh-Endorphin = 100. As to the method:
The opiate receptor binding assay was performed by the method of Pasternak et al., Mol. Pharmacol. 11, 340 (1975) with modifications using a membrane fraction from rat brain homogenate. [^3 H-Tyr^27 ]-βh -EP was used as primary ligand and synthetic βh -EP as standard competing ligand.

For test [4], the system named is guinea pig ileum preparations. The conditions noted are these: βh-EP = 100; cited from earlier work.
The conditions of test [5]: βh-EP = 100; cited from earlier work.
For test [6] the following is noted: cited from earlier work.
Setting [7] is: tritiated βh-EP as primary ligand.

For the compound `CSCC[C@H](NC(=O)[C@H](Cc1ccccc1)NC(=O)CNC(=O)CNC(=O)[C@@H](N)Cc1ccc(O)cc1)C(=O)O` [methionine-enkephalin, reference compound], in test [1], the “activity in rat brain binding assay (in words)” value is on record as “low activity”. Besides, in test [1] (setting [7]), the “activity in rat brain binding assay, relative to βh-EP” value is listed as 5 % of βh -EP.

“[CH3 (CH2)4 NH2^31 ]-βh -EP [[CH(CH2)4 NH2^31]-βh -EP]” returned an IC50 in test [1] (setting [7]) of 0.33 nM. For the same compound, in test [1], the “Relative Potency” value was 197.

For “[Gln^8, Gly^31 ]-βh -EP-Gly-Gly-NH2 [[Gln^8,Gly^31]-βh -Gly--Gly--NH2]”, in test [1], the “potency in the binding assay relative to βh-EP (in words)” value is reported as “nine times that of βh -EP” and the “Relative Potency” value is reported as 929. This compound yielded an IC50 in test [1] (setting [7]) of 0.07 nM.

In test [2], [Gly^31 ]-βh -EP gave a half-maximal inhibitory concentration (IC50) of 76 nM and a Relative Potency of 168. In addition, in test [3], the “Relative Potency” value came out at 83 and the AD50 is given as 0.077 (0.038-0.17) nmole. At opiate receptor, the IC50 was found to be 0.59 nM and the Relative Potency was determined as 127.

In the case of “[Gly^31 ]-βh -EP-Gly-Gly-NH2 [[Gly^31]-βh -EP--Gly--Gly--NH2]”, in test [1], the “potency in the binding assay relative to βh-EP (in words)” value is recorded as “over four times the potency of βh -EP” and the “Relative Potency” value worked out at 433. Besides, the IC50 in test [1] (setting [7]) worked out at 0.15 nM.

Consider “[Gly^31 ]-βh -EP-Gly-NH2 [[Gly^31]-βh -EP--Gly--NH2]”, for which, in test [1], the “activity in rat brain binding assay (in words)” value is on record as “a further increase in activity” and the “Relative Potency” value came to 342. Also, the IC50 in test [1] (setting [7]) worked out at 0.19 nM.

For the compound “[Gly^31 ]-βh -endorphinamide [[Gly^31]-βh -EP--NH2]”, the values for the IC50 (in test [2]; at opiate receptor) were 64 nM and 0.3 nM, respectively. The Relative Potency in test [2] was 200; in test [3], 225; with opiate receptor, 250. For the same compound, in test [3], the AD50 is 0.016 (0.008-0.032) nmole. For the same compound, the “potency in the receptor assay relative to the parent peptide (in words)” value with opiate receptor (Table 4) is on record as “almost three times more potent”.

For “[Gly^31 ]-βh -endorphinylglycine [[Gly^31]-βh -EP--Gly--OH]”, in test [2], the IC50 was found to be 97 nM and the Relative Potency was 132. Besides, in test [3], the “Relative Potency” value is recorded as 217 and the AD50 is given as 0.043 (0.031-0.057) nmole. At opiate receptor, this compound registered an IC50 of 0.49 nM and a Relative Potency of 153.

On to [Phe^27, Gly^31 ]-βh -EP, for which the “relative potency previously obtained, guinea pig ileum assay” value in test [4] was 128. Moreover, the “relative potency previously obtained, in vivo assay” value in test [5] is 119. Also, the “analgesic potency relative to the parent” value in test [6] (intravenous assay route) is reported as “about 1.48 times that of the parent”.

For the compound “β-endorphin: the structure corresponding to positions 61-91 of β-lipotropin, namely β-endorphin (YGGFMTSEKSQTPLVTLFKNAIIKNAYKKGE; Beta-endorphin; UniProt P01189 237-267, looked up)”, in test [6] (intravenous route), the “analgesic activity (in words)” value was “potent analgesic activity by the intravenous route”.

In the case of “βh -Endorphin: synthetic βh -EP as standard competing ligand [reference compound]”, the values for the IC50 (in test [2]; on opiate receptor; in test [1] (setting [7])) were 128 nM, 0.75 nM and 0.65 nM, respectively. In addition, the Relative Potency (in test [2]; in test [3]; in the test on opiate receptor; in test [1]) was 100 throughout.
